Test results from ChEMBL document CHEMBL5154838, “A pH-Dependent rhodamine fluorophore with antiproliferative activity of bladder cancer in Vitro/Vivo and apoptosis mechanism” (Eur J Med Chem, 2022).
Blank lines part the entries; values can stand above or below the compound they belong to. Calls of active or inactive are those of the source. No cut-off for these calls is given here.

Columns and labels:
[1] = Fluorescence response in PBS solution at pH 3 to 9 assessed as higher sensitivity to fluorescence intensity at 2 uM; type: physicochemical; details: buffer, pH 3, 2 µM
[2] = tested on: EJ; test: Antitumor activity against human EJ cells xenografted in male nude mouse assessed as reduction in tumor volume at 22.35 uM and measured at pH 8.5; type: functional, cell-based
[3] = tested on: EJ; test: Antitumor activity against human EJ cells xenografted in male nude mouse assessed as decrease in PCNA expression at 22.35 uM and measured at pH 8.5 by immunohistochemistry analysis; type: functional, cell-based
[4] = tested on: EJ; test: Antitumor activity against human EJ cells xenografted in male nude mouse assessed as decrease in Ki-67 expression at 22.35 uM and measured at pH 5.5 by immunohistochemistry analysis; type: functional, cell-based
[5] = tested on: EJ; test: Antiproliferative activity against human EJ cells at pH 7.5 assessed as LDH levels at 22.35 uM after 24 hrs relative to control; type: functional
[6] = tested on: EJ; test: Antitumor activity against human EJ cells xenografted in male nude mouse assessed as decrease in Ki-67 expression at 22.35 uM and measured at pH 6.5 by immunohistochemistry analysis; type: functional, cell-based
[7] = tested on: EJ; test: Antiproliferative activity against human EJ cells assessed as inhibition of colony formation at 22.35 uM measured by colony formation assay; type: functional, cell-based
[8] = tested on: EJ; test: Antitumor activity against human EJ cells xenografted in male nude mouse assessed as reduction in tumor volume at 22.35 uM and measured at pH 7.5; type: functional, cell-based
[9] = tested on: EJ; test: Antitumor activity against human EJ cells xenografted in male nude mouse assessed as decrease in PCNA expression at 22.35 uM and measured at pH 6.5 by immunohistochemistry analysis; type: functional, cell-based
[10] = tested on: EJ; test: Induction of apoptosis in human EJ cells at 22.35 uM assessed as increase in apoptosis rate measured by Annexin V-PE/7-AAD-based flow cytometry assay; type: functional, cell-based
[11] = tested on: EJ; test: Antitumor activity against human EJ cells xenografted in male nude mouse assessed as reduction in tumor volume at 22.35 uM and measured at pH 5.5; type: functional, cell-based
[12] = tested on: EJ; test: Antiproliferative activity against human EJ cells at pH 7.5 assessed as cell viability at 22.35 uM after 24 hrs by CCK-8 assay relative to control; type: functional; details: read-out: Activity
[13] = tested on: EJ; test: Antitumor activity against human EJ cells xenografted in male nude mouse assessed as increase in cleaved caspase-3 expression at 22.35 uM and measured by Western blotting analysis; type: functional, cell-based
[14] = tested on: EJ; test: Induction of apoptosis in human EJ cells at 22.35 uM assessed as increase in cleaved caspase-3 expression measured by Western blotting assay; type: functional, cell-based
[15] = tested on: EJ; test: Antitumor activity against human EJ cells xenografted in male nude mouse assessed as increase in cleaved caspase-9 expression at 22.35 uM and measured by Western blotting analysis; type: functional, cell-based
[16] = tested on: EJ; test: Induction of apoptosis in human EJ cells at 22.35 uM assessed as increase in cleaved caspase-9 expression measured by Western blotting assay; type: functional, cell-based
[17] = tested on: EJ; test: Antitumor activity against human EJ cells xenografted in male nude mouse assessed as reduction in tumor weight at 22.35 uM and measured at pH 6.5; type: functional, cell-based
[18] = tested on: EJ; test: Antitumor activity against human EJ cells xenografted in male nude mouse assessed as reduction in tumor weight at 22.35 uM and measured at pH 7.5; type: functional, cell-based
[19] = tested on: EJ; test: Antiproliferative activity against human EJ cells at pH 6.5 assessed as LDH levels at 22.35 uM after 24 hrs relative to control; type: functional
[20] = tested on: EJ; test: Antiproliferative activity against human EJ cells at pH 6.5 assessed as cell viability at 22.35 uM after 24 hrs by CCK-8 assay relative to control; type: functional; details: read-out: Activity
[21] = tested on: EJ; test: Antitumor activity against human EJ cells xenografted in male nude mouse assessed as reduction in tumor volume at 22.35 uM and measured at pH 6.5; type: functional, cell-based
[22] = tested on: EJ; test: Antitumor activity against human EJ cells xenografted in male nude mouse assessed as reduction in tumor weight at 22.35 uM and measured at pH 8.5; type: functional, cell-based
[23] = tested on: EJ; test: Antitumor activity against human EJ cells xenografted in male nude mouse assessed as decrease in Ki-67 expression at 22.35 uM and measured at pH 8.5 by immunohistochemistry analysis; type: functional, cell-based
[24] = tested on: EJ; test: Antitumor activity against human EJ cells xenografted in male nude mouse assessed as decrease in Ki-67 expression at 22.35 uM and measured at pH 7.5 by immunohistochemistry analysis; type: functional, cell-based
[25] = tested on: EJ; test: Induction of apoptosis in human EJ cells at 22.35 uM assessed as increase in Bax expression measured by Western blotting assay; type: functional, cell-based
[26] = tested on: EJ; test: Antitumor activity against human EJ cells xenografted in male nude mouse assessed as reduction in tumor weight at 22.35 uM and measured at pH 5.5; type: functional, cell-based
[27] = Antiproliferative activity against human SV-HUC-1 cells after 24 hrs by CCK-8 assay; type: functional, cell-based; details: SV-HUC1, 24 h
[28] = tested on: EJ; test: Antitumor activity against human EJ cells xenografted in male nude mouse assessed as decrease in PCNA expression at 22.35 uM and measured at pH 5.5 by immunohistochemistry analysis; type: functional, cell-based
[29] = tested on: EJ; test: Antiproliferative activity against human EJ cells after 24 hrs by CCK-8 assay; type: functional, cell-based
[30] = tested on: EJ; test: Antitumor activity against human EJ cells xenografted in male nude mouse assessed as increase in Bax expression at 22.35 uM and measured by Western blotting analysis; type: functional, cell-based
[31] = tested on: EJ; test: Antitumor activity against human EJ cells xenografted in male nude mouse assessed as decrease in PCNA expression at 22.35 uM and measured at pH 7.5 by immunohistochemistry analysis; type: functional, cell-based
[32] = tested on: EJ; test: Antiproliferative activity against human EJ cells assessed as inhibition of colony formation at 8.34 uM measured by colony formation assay; type: functional, cell-based

Compound: CCNc1cc2c(cc1C)C1(c3cc(C)c(NCC)cc3O2)c2ccccc2C(=O)N1C1CCC1
Activity [1]: Active

Compound: CCNc1cc2c(cc1C)C1(c3cc(C)c(NCC)cc3O2)c2ccccc2C(=O)N1Cc1ccccn1
Activity [2]: Active | Activity [3]: Active | Activity [4]: Active | Activity [5]: 26.4% | Activity [6]: Active | Activity [7]: Active | Activity [8]: Active | Activity [9]: Active | Activity [1]: Active | Activity [10]: Active | Activity [11]: Active | viability at 22.35 µM [12]: 83.2% | Activity [13]: Active | Activity [14]: Active | Activity [15]: Active | Activity [16]: Active | Activity [17]: Active | Activity [18]: Active | Activity [19]: 42.8% | viability at 22.35 µM [20]: 68.4% | Activity [21]: Active | Activity [22]: Active | Activity [23]: Active | Activity [24]: Active | Activity [25]: Active | Activity [26]: Active | IC50 [27]: 25.6 µM | Activity [28]: Active | IC50 [29]: 22.4 µM | Activity [30]: Active | Activity [31]: Active

Compound: CCNc1cc2c(cc1C)C1(c3cc(C)c(NCC)cc3O2)c2ccccc2C(=O)N1c1ccn([C@@H]2O[C@H](CO)[C@@H](O)C2(F)F)c(=O)n1
Activity [1]: Active | Activity [32]: Active | IC50 [29]: 8.34 µM

The remaining lines, values ahead:

Activity [1]: Active
Compound: CCNc1cc2c(cc1C)C1(c3cc(C)c(NCC)cc3O2)c2ccccc2C(=O)N1CC1CCOCC1

Activity [1]: Active
Compound: CCNc1cc2c(cc1C)C1(c3cc(C)c(NCC)cc3O2)c2ccccc2C(=O)N1CC1CCCO1 (configuration not stated)
